According to US20230278984A1 (Global Blood Therapeutics, Inc., priority 2020, published 2023):

Key:
[1] = system: mouse model of beta-thalassemia; conditions: cited from earlier work
[2] = molecular target: T1, Human pyruvate kinase R (PKR) (Homo sapiens, UniProt P30613); experiment: Biochemical assay for activation of pyruvate kinase R (Kinase-Glo luminescence measurement of ATP generation); conditions: for AC50: PKR biochemical assay, 0.1 nM PKR, 0.3 mM ADP, 2 mM FBP, 0.1 mM PEP; for Emax: maximal activation level relative to the activation level achieved by the literature compound AG-348 @ 10 μM
T1 construct: Human pyruvate kinase R (PKR), residues 14-574; 6x-His (N, cleaved yes); 8x-Arg (N, cleaved yes); SUMO (N, cleaved yes); host or cells: E. coli
In short: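 Recombinant human PKR (residues 14-574), E. coli-expressed with His-Arg-SUMO tag removed, purified by Ni-NTA, anion exchange and size exclusion. Activation measured as ATP generation via Kinase-Glo luminescence.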

T1 sequence (P30613 14-574): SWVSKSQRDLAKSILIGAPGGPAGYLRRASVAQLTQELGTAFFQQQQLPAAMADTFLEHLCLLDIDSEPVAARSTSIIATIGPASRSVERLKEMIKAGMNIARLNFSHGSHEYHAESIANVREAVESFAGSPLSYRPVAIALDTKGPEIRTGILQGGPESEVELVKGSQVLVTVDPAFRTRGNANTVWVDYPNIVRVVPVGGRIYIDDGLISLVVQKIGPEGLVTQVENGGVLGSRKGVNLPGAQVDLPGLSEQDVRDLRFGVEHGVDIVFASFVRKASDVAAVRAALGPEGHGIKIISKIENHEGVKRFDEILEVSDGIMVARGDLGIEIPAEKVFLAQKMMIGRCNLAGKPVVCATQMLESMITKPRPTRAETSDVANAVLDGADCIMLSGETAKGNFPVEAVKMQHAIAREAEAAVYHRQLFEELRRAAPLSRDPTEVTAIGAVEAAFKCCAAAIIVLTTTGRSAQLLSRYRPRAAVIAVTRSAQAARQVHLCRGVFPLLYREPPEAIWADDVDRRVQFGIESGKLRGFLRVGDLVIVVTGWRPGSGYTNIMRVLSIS

Row | Compound | PK activity, ATP levels and RBC parameters [1] | AC50 [2] [nM] | Emax [2] [%]
1 | O=C(c1ccc(NS(=O)(=O)c2cccc3cccnc23)cc1)N1CCN(CC2CC2)CC1 [AG-348, Mitapivat] | increased PK activity and ATP levels, as well as improved RBC parameters | – | –
2 | Cc1nc(CNC(=O)NCc2ncnn2-c2ccc3ncccc3c2)n(-c2ccc(Cl)c(F)c2)n1 [Compound 41, 1-{[1-(4-chloro-3-fluorophenyl)-3-methyl-1H-1,2,4-triazol-5-yl]methyl}-3-{[1-(quinolin-6-yl)-1H-1,2,4-triazol-5-yl]methyl}urea] | – | 40 | 81
3 | COc1ccc(-n2ncnc2CNC(=O)NCc2nc(C)nn2-c2ccc(Cl)c(F)c2)nc1 [Compound 130, 1-{[1-(4-chloro-3-fluorophenyl)-3-methyl-1H-1,2,4-triazol-5-yl]methyl}-3-{[1-(5-methoxypyridin-2-yl)-1H-1,2,4-triazol-5-yl]methyl}urea] | – | 300 | 84
4 | Cc1nc(CNC(=O)NCc2ncnn2-c2ccc(C3CC3)nc2)n(-c2ccc(Cl)c(F)c2)n1 [Compound 131, 1-{[1-(4-chloro-3-fluorophenyl)-3-methyl-1H-1,2,4-triazol-5-yl]methyl}-3-{[1-(6-cyclopropylpyridin-3-yl)-1H-1,2,4-triazol-5-yl]methyl}urea] | – | 78 | 94
5 | O=C(NCc1ncnn1CC1CCOCC1)NCc1ncnn1-c1ccc2cccnc2c1 [Compound 15, 3-({1-[(oxan-4-yl)methyl]-1H-1,2,4-triazol-5-yl}methyl)-1-{[1-(quinolin-7-yl)-1H-1,2,4-triazol-5-yl]methyl}urea] | – | 310 | 57
6 | COc1ccc(-n2ncnc2CNC(=O)NCc2nc(C)nn2-c2ccc(Cl)c(F)c2)cn1 [Compound 123, 3-{[1-(4-chloro-3-fluorophenyl)-3-methyl-1H-1,2,4-triazol-5-yl]methyl}-1-{[1-(6-methoxypyridin-3-yl)-1H-1,2,4-triazol-5-yl]methyl}urea] | – | 140 | 70
7 | Cc1nc(CNC(=O)NCc2ncnn2-c2ccc3c(c2)ncn3C)n(-c2ccc(Cl)c(F)c2)n1 [Compound 44, 1-{[1-(4-chloro-3-fluorophenyl)-3-methyl-1H-1,2,4-triazol-5-yl]methyl}-3-{[1-(1-methyl-1H-1,3-benzodiazol-5-yl)-1H-1,2,4-triazol-5-yl]methyl}urea] | – | 81 | 94
8 | CC1(C)CC(Cn2ncnc2CNC(=O)NCc2ncnn2-c2ccc(Cl)c(F)c2)CCO1 (stereo not drawn) [Compound 13, 3-{[1-(4-chloro-3-fluorophenyl)-1H-1,2,4-triazol-5-yl]methyl}-1-({1-[(2,2-dimethyloxan-4-yl)methyl]-1H-1,2,4-triazol-5-yl}methyl)urea] | – | 1000 | 55
9 | O=C(NCc1nnnn1-c1ccc(F)c(F)c1)NCc1nnnn1-c1ccc(F)c(F)c1 [Compound 56, 1,3-bis({[1-(3,4-difluorophenyl)-1H-1,2,3,4-tetrazol-5-yl]methyl})urea] | – | 1100 | 106
10 | O=C1N(Cc2nnnn2-c2ccc(Cl)cc2)CCCN1Cc1nnnn1-c1ccc(Cl)cc1 [Compound 3, 1,3-bis({[1-(4-chlorophenyl)-1H-1,2,3,4-tetrazol-5-yl]methyl})-1,3-diazinan-2-one] | – | 6000 | 53
11 | Cc1nc(CN(C)C(=O)NCc2ncnn2-c2ccc3cccnc3c2)n(-c2ccc(Cl)c(F)c2)n1 [Compound 53, 1-{[1-(4-chloro-3-fluorophenyl)-3-methyl-1H-1,2,4-triazol-5-yl]methyl}-1-methyl-3-{[1-(quinolin-7-yl)-1H-1,2,4-triazol-5-yl]methyl}urea] | – | 120 | 73
12 | COc1ccc(-n2ncnc2CNC(=O)NCc2ncnn2-c2ccc(OC)nc2)cn1 [Compound 117, 1,3-bis({[1-(6-methoxypyridin-3-yl)-1H-1,2,4-triazol-5-yl]methyl})urea] | – | 2600 | 53
13 | Cc1ccc(-n2ncnc2CNC(=O)NCc2ncnn2-c2ccc(C)c(F)c2)cc1F [Compound 67, 1,3-bis({[1-(3-fluoro-4-methylphenyl)-1H-1,2,4-triazol-5-yl]methyl})urea] | – | 44 | 58
14 | Cc1ccc(-n2ncnc2CNC(=O)NCc2ncnn2-c2ccc(C)c(C)c2)cc1C [Compound 57, 1,3-bis({[1-(3,4-dimethylphenyl)-1H-1,2,4-triazol-5-yl]methyl})urea] | – | 64 | 87
15 | Cc1nc(CNC(=O)NCc2nn(C)c(=O)n2-c2ccc(Cl)c(F)c2)n(-c2ccc(Cl)c(F)c2)n1 [Compound 90, 3-{[4-(4-chloro-3-fluorophenyl)-1-methyl-5-oxo-4,5-dihydro-1H-1,2,4-triazol-3-yl]methyl}-1-{[1-(4-chloro-3-fluorophenyl)-3-methyl-1H-1,2,4-triazol-5-yl]methyl}urea] | – | 40 | 97
16 | O=C(NCc1nnnn1-c1ccc(Cl)c(F)c1)NCc1nnnn1-c1ccc(Cl)c(F)c1 [Compound 63, 1,3-bis({[1-(4-chloro-3-fluorophenyl)-1H-1,2,3,4-tetrazol-5-yl]methyl})urea] | – | 63 | 99
17 | O=C(NCc1nc(CF)nn1-c1ccc(Cl)c(F)c1)NCc1n[nH]c(=O)n1-c1ccc(Cl)c(F)c1 [Compound 107, 1-{[1-(4-chloro-3-fluorophenyl)-3-(fluoromethyl)-1H-1,2,4-triazol-5-yl]methyl}-3-{[4-(4-chloro-3-fluorophenyl)-5-oxo-4,5-dihydro-1H-1,2,4-triazol-3-yl]methyl}urea] | – | 30 | 107
18 | Cc1nc(CNC(=O)N(C)Cc2ncnn2-c2ccc3cccnc3c2)n(-c2ccc(Cl)c(F)c2)n1 [Compound 54, 3-{[1-(4-chloro-3-fluorophenyl)-3-methyl-1H-1,2,4-triazol-5-yl]methyl}-1-methyl-1-{[1-(quinolin-7-yl)-1H-1,2,4-triazol-5-yl]methyl}urea] | – | 85 | 71
19 | O=C(NCc1nnnn1-c1ccc(Cl)c(Cl)c1)NCc1nnnn1-c1ccc(Cl)c(Cl)c1 [Compound 60, 1,3-bis({[1-(3,4-dichlorophenyl)-1H-1,2,3,4-tetrazol-5-yl]methyl})urea] | – | 180 | 82
20 | Cc1ccc(-n2ncnc2CNC(=O)NCc2ncnn2-c2ccc(C)nc2)cn1 [Compound 74, 1,3-bis({[1-(6-methylpyridin-3-yl)-1H-1,2,4-triazol-5-yl]methyl})urea] | – | 2800 | 36
21 | Cc1nc(CNC(=O)NCc2ncnn2-c2ccc3c(cnn3C)c2)n(-c2ccc(Cl)c(F)c2)n1 [Compound 51, 1-{[1-(4-chloro-3-fluorophenyl)-3-methyl-1H-1,2,4-triazol-5-yl]methyl}-3-{[1-(1-methyl-1H-indazol-5-yl)-1H-1,2,4-triazol-5-yl]methyl}urea] | – | 66 | 75
22 | CCN(Cc1ncnn1-c1cnc2ccccc2c1)C(=O)NCc1nc(C)nn1-c1ccc(Cl)c(F)c1 [Compound 142, 1-{[1-(4-chloro-3-fluorophenyl)-3-methyl-1H-1,2,4-triazol-5-yl]methyl}-3-ethyl-3-{[1-(quinolin-3-yl)-1H-1,2,4-triazol-5-yl]methyl}urea] | – | 250 | 127
23 | O=C(NCc1ncnn1-c1ccc2cccnc2c1)NCc1n[nH]c(=O)n1-c1ccc(Cl)c(F)c1 [Compound 98, 3-{[4-(4-chloro-3-fluorophenyl)-5-oxo-4,5-dihydro-1H-1,2,4-triazol-3-yl]methyl}-1-{[1-(quinolin-7-yl)-1H-1,2,4-triazol-5-yl]methyl}urea] | – | 71 | 60
